The values that follow come from ChEMBL document CHEMBL4831522, “Structure-Based Optimization of Quinazolines as Cruzain and TbrCATL Inhibitors” (J Med Chem, 2021).

The nature of data set [1]: Cytotoxicity against mouse C2C12 cells. The format is cell-based.
The next data set has as its system Trypanosoma cruzi. The data set can be described thus: Trypanocidal activity against amastigotes form of Trypanosoma cruzi CA-I/72 infected in mouse C2C12 cells assessed as inhibition of parasite replication incubated for 48 hrs by DAPI staining based microscopic analysis. The format is functional, organism-based. The conditions noted are these: CA-I/72, C2C12, 48 h.

The nature of data set [2]: Selectivity index, ratio of CC50 for cytotoxicity against mouse C2C12 cells to EC50 for trypanocidal activity against Trypanosoma cruzi […] infected in mouse C2C12 cells. The conditions noted are these: read-out: Selectivity Index. The format is toxicity, cell-based.
For data set [3], the target named is Cruzipain (Trypanosoma cruzi) (UniProt P25779). Description: Inhibition of recombinant Trypanosoma cruzi cruzain at 100 uM using Z-FR-AMC as substrate by fluorometry relative to control.
Sequence of Cruzipain (Trypanosoma cruzi) (P25779 123-467 limits assumed): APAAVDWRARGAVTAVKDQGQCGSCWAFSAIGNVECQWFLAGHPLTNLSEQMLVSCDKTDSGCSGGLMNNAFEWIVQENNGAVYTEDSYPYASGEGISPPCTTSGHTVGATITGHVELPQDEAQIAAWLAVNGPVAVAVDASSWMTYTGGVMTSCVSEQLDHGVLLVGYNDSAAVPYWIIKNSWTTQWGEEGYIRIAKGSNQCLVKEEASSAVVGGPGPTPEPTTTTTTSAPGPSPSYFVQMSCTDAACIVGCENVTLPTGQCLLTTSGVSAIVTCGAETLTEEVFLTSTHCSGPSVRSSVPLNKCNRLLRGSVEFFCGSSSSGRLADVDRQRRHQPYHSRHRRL
Data set [4] concerns Trypanosoma brucei brucei. The data set can be described thus: Antitrypanosomal activity against Trypanosoma brucei brucei Lister 427 bloodstream forms measured after 72 hrs by SYBR green dye based assay. It counts as functional, organism-based. To be noted: Lister 427, 72 h.
The target in data set [5] is Cruzipain (Trypanosoma cruzi) (UniProt P25779). The data set can be described thus: Inhibition of recombinant Trypanosoma cruzi cruzain using Z-FR-AMC as substrate and compound-enzyme complex preincubated for 5 mins in presence of 0.001% Triton-X100 by fluorometry relative to control.
For data set [6] the target is unchanged. Description: Inhibition of recombinant Trypanosoma cruzi cruzain using Z-FR-AMC as substrate and compound-enzyme complex preincubated for 5 mins in presence of 0.01% Triton-X100 by fluorometry relative to control.
In another data set the target is Cruzipain (Trypanosoma cruzi, UniProt P25779). Description: Inhibition of recombinant Trypanosoma cruzi cruzain using Z-FR-AMC as substrate by fluorometry.
Sequence of Cruzipain (P25779 whole entry): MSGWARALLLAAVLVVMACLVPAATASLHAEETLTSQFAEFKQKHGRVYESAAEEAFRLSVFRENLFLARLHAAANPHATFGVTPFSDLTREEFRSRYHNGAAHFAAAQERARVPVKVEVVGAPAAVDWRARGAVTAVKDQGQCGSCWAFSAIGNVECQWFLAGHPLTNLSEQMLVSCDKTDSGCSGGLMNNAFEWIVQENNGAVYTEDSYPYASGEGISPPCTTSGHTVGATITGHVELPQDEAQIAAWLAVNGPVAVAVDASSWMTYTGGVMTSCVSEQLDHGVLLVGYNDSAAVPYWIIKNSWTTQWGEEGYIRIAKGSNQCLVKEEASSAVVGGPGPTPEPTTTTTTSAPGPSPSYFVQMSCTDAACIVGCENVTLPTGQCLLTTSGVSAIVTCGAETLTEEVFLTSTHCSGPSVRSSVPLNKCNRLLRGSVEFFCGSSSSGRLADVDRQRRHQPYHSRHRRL
Data set [7] has as its target Cruzipain (Trypanosoma cruzi) (UniProt P25779). Description: Inhibition of recombinant Trypanosoma cruzi cruzain using Z-FR-AMC as substrate when compound was preincubated for 5 mins in presence of BSA and 0.001% Triton-X100 followed by further incubation for 5 mins in presence of enzyme relative to control. The conditions noted are these: time 10.0 min.
The target of data set [8] is Rhodesain (Trypanosoma brucei rhodesiense) (UniProt Q95PM0). The data set can be described thus: Inhibition of recombinant Trypanosoma brucei rhodesiense MVAT4 rhodesain expressed in Pichia pastoris at 100 uM using Z-FR-AMC as substrate by fluorometry relative to control.
Sequence of Rhodesain (Trypanosoma brucei rhodesiense) (Q95PM0 1-450): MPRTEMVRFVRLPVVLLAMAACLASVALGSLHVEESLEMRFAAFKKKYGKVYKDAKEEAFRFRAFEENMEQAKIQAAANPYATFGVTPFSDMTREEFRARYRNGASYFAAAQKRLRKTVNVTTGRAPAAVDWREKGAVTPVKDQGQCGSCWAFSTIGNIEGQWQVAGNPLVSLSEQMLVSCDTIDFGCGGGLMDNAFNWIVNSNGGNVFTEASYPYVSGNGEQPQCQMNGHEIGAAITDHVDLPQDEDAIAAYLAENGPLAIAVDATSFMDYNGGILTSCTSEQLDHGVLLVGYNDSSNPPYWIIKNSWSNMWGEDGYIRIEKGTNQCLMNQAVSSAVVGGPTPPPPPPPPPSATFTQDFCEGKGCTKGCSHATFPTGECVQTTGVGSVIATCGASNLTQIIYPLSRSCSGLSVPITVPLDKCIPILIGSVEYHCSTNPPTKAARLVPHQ
Data set [9] has as its target Cruzipain (Trypanosoma cruzi) (UniProt P25779). Description: Inhibition of recombinant Trypanosoma cruzi cruzain using Z-FR-AMC as substrate and compound-enzyme complex preincubated for 5 mins in presence of 0.1% Triton-X100 by fluorometry relative to control.

Each structure is given as a SMILES string.

By CC50 is commonly meant the concentration giving 50% cytotoxicity. A low value points to harm at low concentration. The EC50 is the midpoint of the concentration-response curve. In turn, `O=C(Cn1ccnc1[N+](=O)[O-])NCc1ccccc1` [BENZNIDAZOLE] had a CC50 in data set [1] above 50 µM. In addition, the EC50 in the data set on Trypanosoma cruzi is 5.4 µM. Besides, the selectivity ratio in data set [2] is above 9.
As a reminder, the inhibition is the share of the control response that was lost under treatment. For orientation: IC50 means the concentration that inhibits the measured activity by half. On to `OCCCNc1nc(NCc2ccccc2)c2ccccc2n1`, for which the inhibition in data set [3] was 100%; in data set [5], 25%; in data set [6], 31%; in [7], 30%; in [8], 47%; in data set [9] it was 33%. In [1], the CC50 was above 10 µM. The values for the EC50 (in the data set on Trypanosoma cruzi; in [4]) were 0.5 µM and above 50 µM, respectively. Also, in data set [2], the selectivity ratio was above 193. Further, on Cruzipain, the IC50 was 22 µM.
Turning to `OCCCNc1nc(Nc2ccc(Cl)cc2)nc2ccccc12`, the inhibition worked out at 87% in [3]; 47% in data set [5]; 36% in data set [6]; 35% in [7]; 63% in data set [8]; 35% in data set [9]. The same compound had a cytotoxic concentration (CC50) in data set [1] above 10 µM. Besides, the values for the EC50 (with Trypanosoma cruzi; in data set [4]) were 0.25 µM and 9 µM, respectively. Also, the selectivity ratio in data set [2] is above 40. Besides, at Cruzipain, the IC50 was 7.3 µM.
On to `c1ccc(CNc2nc(Nc3ccccn3)nc3ccccc23)cc1`, for which the inhibition stood at 100% in [3] and 10% in data set [8]. The same compound returned a CC50 in data set [1] above 10 µM. The EC50 was 2.7 µM in the data set with Trypanosoma cruzi and above 50 µM in data set [4]. The selectivity ratio in data set [2] is above 4.
With `Cn1cnc2c(NCc3ccccc3)nc(Nc3ccc(Cl)cc3)nc21`, the CC50 in [1] was above 10 µM. Further, the EC50 in the data set with Trypanosoma cruzi was 12 µM; in data set [4], 18.4 µM. Besides, the selectivity ratio in data set [2] was above 1. Moreover, in [8], the inhibition amounted to 5%.
In the case of `O=C(Nc1ccccc1)c1ccc(Nc2nc(NCCN3CCOCC3)c3ccccc3n2)cc1`, the values for the inhibition in data set [3] and in [8] were 84% and 29%, respectively. Besides, the CC50 in data set [1] is above 10 µM. For the same compound, the EC50 came out at 0.8 µM in the data set on Trypanosoma cruzi and 2.7 µM in data set [4]. Besides, the selectivity ratio in data set [2] is above 12.
Turning to `Cn1cnc2c(NCc3ccccc3)nc(Nc3ccccc3)nc21`, the CC50 in data set [1] was above 10 µM. Moreover, the EC50 in the data set with Trypanosoma cruzi came out at 2.2 µM; in [4], 23.8 µM. For the same compound, the selectivity ratio in data set [2] is above 5. For the same compound, the inhibition in data set [8] is 11%.
As to `c1ccc(CNc2ccnc(Nc3ccccc3)n2)cc1`, the CC50 in [1] is above 10 µM. Moreover, the EC50 in the data set with Trypanosoma cruzi was 7 µM; in [4] it was above 50 µM. Further, the selectivity ratio in data set [2] is above 1. Moreover, in [8], the inhibition turned out to be 6%.
In the case of `Fc1cccc(Nc2nc(Nc3ccccc3)nc3ccccc23)c1`, the values for the inhibition in data set [3] and in [8] were 46% and 17%, respectively. In [1], this compound displayed a CC50 above 10 µM. Moreover, the EC50 with Trypanosoma cruzi is 0.07 µM; in [4] it was 9 µM. Further, in [2], the selectivity ratio is above 150.
Compound `N=C(N)c1ccc(OCCCCCOc2ccc(C(=N)N)cc2)cc1` [PENTAMIDINE] gave an EC50 in [4] of 0.026 µM.
As for `OCCCNc1nc(NCCN2CCOCC2)c2ccccc2n1`, the inhibition in data set [3] was 67%; in data set [8], 22%. In data set [1], this compound came in with a CC50 above 10 µM. Moreover, the results for the EC50 (in the data set on Trypanosoma cruzi; in [4]) were 35 µM and above 50 µM, respectively. The selectivity ratio in data set [2] is above 0.3.
With `O=C(Nc1ccccc1)c1ccc(Nc2nc(NCc3ccccc3)c3ccccc3n2)cc1`, the CC50 in [1] is above 10 µM. For the same compound, the EC50 in the data set with Trypanosoma cruzi was 1.8 µM; in data set [4], above 50 µM. For the same compound, the selectivity ratio in data set [2] was above 6. Further, the inhibition in data set [5] is 100%; in data set [6], 54%; in data set [7] it was 8%; in data set [9] it was 4%.
